Results taken from US20250281607A1, “MEDICAMENT FOR TREATMENT AND/OR PREVENTION OF CANCER” (TORAY INDUSTRIES, INC., priority 2021, published 2025).
Each block holds one molecule with its values, some of them ahead of it.

Legend:
[1] = tested on: colon cancer cell line HCT116; assay: THP-1-mediated phagocytic activity against HCT116 (Examples 3 to 6); assay type: cell-based, human; details: cells cultured 2 days with drug at 10 μM, then anti-CAPRIN-1 humanized antibody #1 1 μg/mL
Experimental: Specifically, in each RAS inhibitor combination test group, the indicated drug used in combination was applied to human cancer cells, and then the cancer cells were cocultured with human monocytic cells (THP-1) in the presence of the anti-CAPRIN-1 antibody, and the antibody-mediated phagocytic activity against the cancer cells by THP-1 was evaluated.
The human-derived cancer cells used were a colon cancer cell line HCT116. On a 6-well plate, the human-derived cancer cells were cultured for 2 days in the presence of the indicated drug used in combination in the lonafarnib combination test group, the sotorasib combination test group and the salirasib combination test group. […]
Each cancer cell line after the culture was dissociated with TrypLE Express (Thermo), and the cancer cells were stained by the addition of calcein-AM at a final concentration of 0.04 μg/mL and incubation at 37° C. for 10 minutes. […] Further, dead cells were stained with propidium iodide (PI) (final concentration: 0.1 μg/mL), followed by the measurement of fluorescence from the cells by flow cytometry. […] Thus, the phagocytic activity in this evaluation system was calculated as the ratio (%) of APC-positive/calcein-AM-positive cells to the whole calcein-AM-positive population. […]

[2] = tested on: colon cancer cell line HCT116; assay: THP-1-mediated phagocytic activity against HCT116 (Example 2); assay type: cell-based, human; details: then anti-CAPRIN-1 humanized antibody #1 5 μg/mL, FIG. 2
Experimental: Specifically, in each combination test group (a trametinib combination test group, a fluorouracil combination test group and an irinotecan combination test group), the indicated drug used in combination was applied to human cancer cells, and then the cancer cells were cocultured with human monocytic cells (THP-1) in the presence of the anti-CAPRIN-1 antibody, and the antibody-mediated phagocytic activity against the cancer cells by THP-1 was evaluated. The human-derived cancer cells used were melanoma cell line A375 (used only in the trametinib combination test group), colon cancer cell line HCT116, prostate cancer cell line DU145 (used only in the trametinib combination test group), and lung cancer cell line A549 (used only in the trametinib combination test group). On a 6-well plate, the human-derived cancer cells were cultured for 2 days in the presence of trametinib for the trametinib combination test group, and cultured for 2 days in the presence of the each drug used in combination for the fluorouracil combination test group and the irinotecan combination test group. The concentration of the drug used in combination was set to a concentration that decreased the proliferation rate of the cancer cells by about half at the completion of culture. […]
Each cancer cell line after the culture was dissociated with TrypLE Express (Thermo), and the cancer cells were stained by the addition of calcein-AM at a final concentration of 0.02 μg/mL and incubation at 37° C. for 30 minutes. […] Further, dead cells were stained with propidium iodide (PI) (final concentration: 0.1 μg/mL), followed by the measurement of fluorescence from the cells by flow cytometry. […] Thus, the phagocytic activity in this evaluation system was calculated as the ratio (%) of APC-positive/calcein-AM-positive cells to the whole calcein-AM-positive population.

CAPRIN-1 protein = biological target: T1, CAPRIN-1 protein (Homo sapiens, UniProt Q14444); assay: ELISA reactivity with CAPRIN-1 protein immobilized on a plate; assay type: binding
T1 construct: made in house
T1 sequence (Q14444 1-709): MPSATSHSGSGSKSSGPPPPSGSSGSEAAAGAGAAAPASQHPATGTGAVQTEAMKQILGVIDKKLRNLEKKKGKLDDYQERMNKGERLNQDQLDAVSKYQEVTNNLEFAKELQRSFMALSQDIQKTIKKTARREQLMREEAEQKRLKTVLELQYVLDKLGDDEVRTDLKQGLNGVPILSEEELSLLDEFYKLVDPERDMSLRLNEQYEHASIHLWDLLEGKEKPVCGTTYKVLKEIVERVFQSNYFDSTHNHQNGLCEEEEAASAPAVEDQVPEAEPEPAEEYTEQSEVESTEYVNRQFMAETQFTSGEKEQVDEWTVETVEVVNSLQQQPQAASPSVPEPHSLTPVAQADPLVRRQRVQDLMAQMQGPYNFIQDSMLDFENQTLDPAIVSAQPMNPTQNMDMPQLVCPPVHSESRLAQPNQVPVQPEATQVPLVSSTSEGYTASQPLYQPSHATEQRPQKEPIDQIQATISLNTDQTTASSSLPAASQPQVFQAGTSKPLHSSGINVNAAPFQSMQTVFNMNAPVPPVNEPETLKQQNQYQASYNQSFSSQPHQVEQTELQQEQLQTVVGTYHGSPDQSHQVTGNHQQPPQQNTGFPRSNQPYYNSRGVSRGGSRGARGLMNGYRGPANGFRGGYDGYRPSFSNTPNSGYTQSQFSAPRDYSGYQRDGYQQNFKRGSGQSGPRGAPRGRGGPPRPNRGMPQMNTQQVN
Experimental: One hundred (100) μg of a human CAPRIN-1 recombinant protein produced according to Example 3 of WO2010/016526 was mixed with a MPL+TDM adjuvant (Sigma) in an amount equivalent to that of the recombinant protein. The mixture was used as an antigen solution per mouse. The antigen solution was administered intraperitoneally to 6-week-old Balb/c mice (Japan SLC Inc.) and then further administered 3 times […] every week for completion of immunization. A spleen was removed on day 3 after the final immunization and then ground between two sterilized glass slides. Spleen cells were obtained by repeating the following procedure three times: washing with PBS (-) (Nissui Corporation), centrifuging at 1500 rpm for 10 minutes, and removing supernatant. The obtained spleen cells were mixed with mouse myeloma cell SP2/0 (purchased from ATCC) at a ratio of 10:1. The PEG solution prepared by mixing 200 μl of RPMI1640 medium containing 10% FBS heated at 37° C. and 800 μl of PEG1500 (Boehringer) was added to the cells. The solution was incubated for 5 minutes for cell fusion. Centrifugation was performed at 1700 rpm for 5 minutes to remove supernatants. […] Absorbance at 450 nm and absorbance at 595 nm were measured using an absorption spectrometer. As a result, a plurality of hybridomas producing antibodies with high absorbances were selected. […]

Molecule: O=C(Nc1ccc2[nH]nc(-c3ccncc3)c2c1)[C@@H]1CCN(CC(=O)N2CCN(c3ccc(-c4ncccn4)cc3)CC2)C1 [SCH772984, (3R)-1-[2-oxo-2-[4-(4-pyrimidin-2-ylphenyl)piperazin-1-yl]ethyl]-N-(3-pyridin-4-yl-1H-indazol-5-yl)pyrrolidine-3-carboxamide]
phagocytic activity against cancer cells ([1]; FIG. 5): 90%

Molecule: COc1cc(Nc2c(C#N)cnc3cc(OCCCN4CCN(C)CC4)c(OC)cc23)c(Cl)cc1Cl [bosutinib, 4-(2,4-dichloro-5-methoxyanilino)-6-methoxy-7-[3-(4-methylpiperazin-1-yl)propoxy]quinoline-3-carbonitrile]
phagocytic activity against cancer cells ([1]; FIG. 3): 82%

Molecule: O=c1[nH]cc(F)c(=O)[nH]1 [fluorouracil]
phagocytic activity against cancer cells ([2]; cells cultured 2 days with drug at 0.4 μg/mL): 16%

Molecule: CCc1c2c(nc3ccc(OC(=O)N4CCC(N5CCCCC5)CC4)cc13)-c1cc3c(c(=O)n1C2)COC(=O)[C@]3(O)CC [irinotecan]
phagocytic activity against cancer cells ([2]; cells cultured 2 days with drug at 15 μM): 14%

specific reactivity to CAPRIN-1 protein (CAPRIN-1 protein): exhibiting reactivity
B1: monoclonal antibody against CAPRIN-1 described in WO2013/125630: mouse monoclonal antibody; heavy-chain variable region SEQ ID NO: 114, light-chain variable region SEQ ID NO: 115; parent of humanized … (antibody, listed as Mus musculus, V domains shown)
VH: GPELVKPGASVKMSCKASGYTFTSYVMHWVKQKPGQGLEWIGYINPYNDGTKYNEKFKGKATLTSDKSSSTAYMELSSLTSEDSAVYYCARRYYYGSSGGYFDVWAQDHVRT
VL: DVQITQSPSYLAASPGETITINCRASKSISKYLAWYQEKPGKTNKLLIYSGSTLQSGIPSRFSGSGSGTDFTLTISSLEPEDFAMYYCQQHNEYPYTFGGGTKLEIKR
notes: mouse monoclonal antibody; parent of humanized antibody #1
